According to patent US8309324B2, “Promoters and proteins from Clostridium thermocellum and uses thereof” (University of Rochester, priority 2004, dated 2012):
Entries after “also recorded” stand apart in the source; their conditions may differ.

Key:
[1] = test system: rGlyR3-celC promoter complex; assay: EMSA, effect of sugars on the rGlyR3-celC promoter complex; assay type: binding, Clostridium thermocellum; settings: for effect of sugar on the rGlyR3-celC promoter binding reaction: 15 mM sugar, 5 ng 100 bp celC promoter DNA, 0.5 ng rGlyR3, FIG. 17
Procedure: The EMSA analyzing biotin labeled DNA fragments. Lane 1, no protein and 5 ng DNA; Lanes 2-12 contain 5 ng 100 bp celC promoter DNA, 0.5 ng rGlyR3 and 15 mM of their respected sugars.
(§1) All EMSA experiments described herein were performed using a 4% polyacrylamide gel and Tris-Borate-EDTA buffer. EMSA reactions all contained: 500 ng poly (dI-dC), 1× Lightshift EMSA kit binding buffer (Pierce), 1× Lightshift loading dye (Pierce), optimized amounts of DNA probe, protein, and saccharides as specified in figure legends.
The binding of the rGlyR3 protein was inhibited by laminaribiose. Several sugars were tested to see if they could inhibit the rGlyR3-celC promoter complex.

celC transcription = assay: In vitro transcription assay (RT-qPCR readout); assay type: biochemical, Clostridium thermocellum
Procedure: The baseline transcription mixture consists of: rNTPs, transcription buffer, 1 ug of 850 bp DNA containing celC and its promoter region, 10 ul C. thermocellum cell lysate (grown on cellobiose). After transcription, the RNA was harvested, DNase I digested, used in a Reverse Transcriptase reaction and then in qPCR.
A DNA template for in vitro transcription was created using the following primers (SEQ ID NO:30): Invt-F-[…]; (SEQ ID NO:31): Invt-R-CCAGTGGGCTTTCTGATGC) to amplify the 200 bp celC promoter along with 650 bp of the celC gene. PCR used a standard reaction for Extensor Hi-Fidelity Enzyme with genomic DNA as template. Each in vitro transcription assay contained: 10 μl C. thermocellum cell lysate (cellobiose grown culture), 2 μl RNase Out (Invitrogen, Carlsbad, Calif.), 1× RNA polymerase buffer, 1 μg of DNA template, 25 nM rNTP's, differing amounts of rGlyR3, differing amounts of laminaribiose, and DEPC water to a volume of 50 μl. The reactions were incubated at 60° C. for 50 minutes. After incubation the resulting RNA was isolated using the previously described Trizol method. The isolated RNA was subjected to DNase I digestion and a standard reverse transcription reaction as described above. Using the qPCR protocol already outlined, with primers for celC, it was possible to show the amount of transcript created for each reaction.

[2] = test system: celC, glyR3, licA, orf4, manB and celT transcripts; assay: RT-qPCR, inducibility of gene expression in C. thermocellum grown on different substrates; assay type: cell-based, Clostridium thermocellum; settings: substrate 0.5%, time course of 50 hrs, compared with 1-3 linked sugars, FIG. 2
Procedure: FIG. 2 is a graph showing RT-qPCR results detailing the inducibility of expression of celC, glyR3 and licA when Clostridium thermocellum is grown on a 1-3 linked sugar: lichenan, laminarin and laminaribiose, compared to the 1-4 linked sugar, cellobiose. The bacterium was grown on the substrates for a time course of 50 hrs. Each 10 hours a sample was taken and the RNA harvested, DNase I digested, subjected to reverse transcription, and then qPCR. Columns left to right for each substrate represent relative transcription levels of celC, glyR3, licA orf4 manB and ceIT, respectively. The qPCR levels are all relative to the 16S transcript in C. thermocellum.
To test the effect of growth substrate on the inducibility of the expression of celC, glyR3, licA, orf4, manB, and celT genes in C. thermocellum, C. thermocellum was grown on substrates containing either a 1-4 linked sugar (cellobiose) or a 1-3 linked sugar (laminarin, lichenan, and laminaribiose). RT-qPCR was carried out on the cells to determine the level of 16S transcripts of the genes, as follows.
The bacterium was grown on the substrates for a time course of 50 hrs. Each 10 hrs a sample was taken. Cultures were centrifuged to collect the cells. Everything used from this point forward was RNase free. […] RNA concentration was measured using a Hitachi U-2000 spectrophotometer at 260/280 nm. […]

CelR = biological target: T1, CelR (Thermobifida fusca, UniProt O87590); settings: Spiridonov et al. 1999; cited from earlier work
T1 sequence (O87590 1-340): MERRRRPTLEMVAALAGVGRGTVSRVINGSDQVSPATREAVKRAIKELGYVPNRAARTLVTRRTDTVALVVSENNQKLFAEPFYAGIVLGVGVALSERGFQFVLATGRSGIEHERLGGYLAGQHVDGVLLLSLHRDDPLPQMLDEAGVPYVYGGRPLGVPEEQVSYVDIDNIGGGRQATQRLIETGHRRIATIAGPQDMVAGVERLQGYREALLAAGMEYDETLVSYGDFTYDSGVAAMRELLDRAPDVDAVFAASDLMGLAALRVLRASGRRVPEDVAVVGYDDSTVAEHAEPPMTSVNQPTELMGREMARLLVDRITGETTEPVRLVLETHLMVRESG

[3] = test system: rGlyR3-celC promoter complex; assay: EMSA rGlyR3 binding site competition assay; parameters: species or system Clostridium thermocellum; settings: 100x unlabeled competitor, 0.5 ng rGlyR3, FIG. 16
Procedure: FIG. 16 is a gel showing the results of an EMSA rGlyR3 binding site competition assay. A gel shift competition assay was used to analyze specificity of binding and confirm the DNase I footprint results. All lanes contain biotin labeled 100 bp celC promoter fragment containing the binding site. Lane 1, no protein; Lane 2, 0.5 ng rGlyR3; Lane 3, 0.5 ng rGlyR3 and 100× unlabeled 18 bp binding site; Lane 4, 0.5 ng rGlyR3 and 100 × control fragment (18 bp piece of original 100 bp region, contains no part of putative binding site).
as §1
The 18 bp sequence corresponds to (SEQ ID NO:36): AATGAACGC GCGTACATT.

celC promoter region = assay: EMSA, binding of rGlyR3 to the celC promoter region; parameters: species or system Clostridium thermocellum
Procedure: Gel Shift, or Band Shift Assay, or Electrophoretic Mobility Shift Assay (EMSA) is a technique for studying gene regulation and determining protein:DNA interactions. The assay is based on the observation that complexes of protein and DNA migrate through a non-denaturing polyacrylamide gel more slowly than free DNA fragments or double-stranded oligonucleotides. The gel shift assay is carried out by first incubating a protein(s) (such as nuclear or cell extract) with a 32^P end-labeled DNA fragment containing the putative protein binding site. The reaction products are then analyzed on a non-denaturing polyacrylamide gel. The specificity of the DNA-binding protein for the putative binding site is established by competition experiments using DNA fragments or oligonucleotides containing a binding site for the protein of interest or other unrelated DNA sequences.
as §1
EMSA gels were electroblotted onto Biodyne B membrane (Pall Corporation). Signal development was accomplished using the Lightshift Chemiluminescent EMSA kit protocol (Pierce). Kodak Biomax film captured the luminescence for viewing.
Probes for EMSA were created using PCR with Thermostart Taq (ABgene) as a polymerase. The standard Thermostart protocol was used with varying extension times (1 kb/minute rule always followed) and different annealing temperatures (57° C.-62° C.). Primers were synthesized with a 5′ biotin label by Invitrogen (Carlsbad, Calif.). Primers (5′-3′) used: […]
For probes that contained just the 18 bp binding site, complementary DNA fragments were synthesized and annealed by heating to 94 C and then cooling:
(§2) The dissociation constant was determined as the concentration of GlyR3 needed to shift 50% of the celC promoter region in the EMSA.

[4] = test system: 200 bp fragment of the celS structure gene; assay: EMSA, rGlyR3 with celS structure gene fragment as probe; assay type: binding, Clostridium thermocellum; settings: FIG. 11, lanes 5 and 6
Procedure: as §1, §2

OC[C@H]1O[C@@H](O[C@H]2[C@H](O)[C@@H](O)C(O)O[C@@H]2CO)[C@H](O)[C@@H](O)[C@H]1O (some centres unmarked) [lactose]
effect of sugar on the rGlyR3-celC promoter binding reaction [1]: no effect

OC[C@H]1O[C@@H](O[C@H]2[C@H](O)[C@@H](CO)OC(O)[C@@H]2O)[C@H](O)[C@@H](O)[C@@H]1O (some centres unmarked) [laminaribiose]
effect on celC transcription in presence of GlyR3 (celC transcription; 5 mM laminaribiose in addition to 400 ng GlyR3, FIG. 3): transcription returned to baseline levels or greater | effect of sugar on the rGlyR3-celC promoter binding reaction [1]: severely reduced the formation of the DNA-protein complex | effect on binding of GlyR3 to the 18 bp binding site ([1]; FIG. 15): inhibited | effect of laminaribiose on GlyR3-100 bp celC promoter interaction ([1]; GlyR3 0.5 ng, DNA 5 ng, increasing laminaribiose, FIG. 9): inhibited; also recorded: DNA-protein complex diminished as the concentration of laminaribiose increased

OC[C@H]1O[C@H](O[C@H]2[C@H](O)[C@@H](O)[C@H](O)O[C@@H]2CO)[C@H](O)[C@@H](O)[C@@H]1O [maltose]
effect of sugar on the rGlyR3-celC promoter binding reaction [1]: no effect

O=C[C@H](O)[C@@H](O)[C@H](O[C@@H]1O[C@H](CO)[C@@H](O)[C@H](O)[C@H]1O)[C@H](O)CO [cellobiose]
transcript level of the gene cluster relative to 16S transcript [2]: less of the transcript containing the genes is produced | concentration inhibiting binding of CelR to its target DNA sequence (CelR): 0.2 to 0.5 mM

unlabeled 18 bp binding site: 18 bp near perfect palindromic sequence of the celC promoter, SEQ ID NO:36: AATGAACGC GCGTACATT (DNA AATGAACGCGCGTACATT; listed as DNA, chemistry not given here)
competition for the shifted band of the 100 bp celC promoter fragment [3]: able to compete out the shifted band

OC[C@H]1O[C@@H](OC[C@H]2OC(O)[C@H](O)[C@@H](O)[C@@H]2O)[C@H](O)[C@@H](O)[C@@H]1O (some centres unmarked) [gentibiose]
effect of sugar on the rGlyR3-celC promoter binding reaction [1]: no effect

OC[C@H]1O[C@@](CO)(O[C@H]2O[C@H](CO)[C@@H](O)[C@H](O)[C@H]2O)[C@@H](O)[C@@H]1O [sucrose]
effect of sugar on the rGlyR3-celC promoter binding reaction [1]: no effect

B1: GlyR3: C. thermocellum LacI-like repressor protein, amino acid sequence SEQ ID NO:3; rGlyR3 is the recombinant form expressed in E. coli (protein)
chain: MTSEEIAKLCGVSRATVSRVINNSPNVKEETRQKILAVIKEKNYVPIAPARRLAGIDSNIIGLFVLDIDISESKSRVSESTYFSRLINLIIDQANNFGFQVLVSIITSQKQLSEIRNLFMSRTIFSGIFIGAFNDEIQLDDDIIMQHPTIIIDRQSERMVKKPNRLVVNLDNFEGAYNATQFLIKLGHTRIGHISGDLRKLSGIERYEGYKKALEDAGLGFDKNLVREGNFLDDSGYRLAREILKENVTAIFCANDVMAISAIKAIKETGLSVPDDISVIGFDNTAIGNYIMPALTTVNAPLEHIAEACIESLKYFCEHKHFKQKEIRVKTDLIIRDSTKRALEF
modifications: C. thermocellum
notes: rGlyR3 is the recombinant form expressed in E. coli
binding to first and second halves of the celC promoter (band shift) (celC promoter region; 0.5 ng rGlyR3, 5 ng of each probe, FIG. 11): creates a shifted band with both probes | binding to the 200 bp celC promoter region (celC promoter region; 1 ng protein, 5 ng DNA, FIG. 12): binds | binding to a control fragment of 18 bp located within the celC promoter (celC promoter region; FIG. 13): no binding | binding to the 18 bp DNA fragment (binding site) (celC promoter region; FIG. 13): dose dependent binding | effect on transcription of the celC gene in vitro (celC transcription; 400 ng GlyR3, FIG. 3): can inhibit transcription | binding to 200 bp fragment of the celS structure gene [4]: does not bind
